Laboratory results as given in ChEMBL document CHEMBL1697781, “Assessment of the health effects of chemicals in humans: II. Construction of an adverse effects database for QSAR modeling” (Curr Drug Discov Technol, 2004).

Legend:
Settings in all cases: human; call rule not given here
[1] = test system: Hepatotoxicity; assay: FDA HLAED, liver enzyme composite activity
[2] = test system: Hepatotoxicity; assay: FDA HLAED, gamma-glutamyl transferase (GGT) increase
[3] = test system: Hepatotoxicity; assay: FDA HLAED, alkaline phosphatase increase
[4] = test system: Hepatotoxicity; assay: FDA HLAED, serum glutamic oxaloacetic transaminase (SGOT) increase
[5] = test system: Hepatotoxicity; assay: FDA HLAED, serum glutamic pyruvic transaminase (SGPT) increase
[6] = test system: Hepatotoxicity; assay: FDA HLAED, lactate dehydrogenase (LDH) increase
For GGT Increase - Index Value in this document: reference of the scale not given here.
For LDH Increase - Index Value in this document: reference of the scale not given here.

Row | Compound | Composite Activity - Active [1] | Composite Activity - Marginal [1] | Composite Activity - Score [1] | GGT Increase - Activity Score [2] | GGT Increase - Index Value [2] | GGT Increase - Number of Reports [2] | Alkaline Phosphatase Increase - Activity Score [3] | Alkaline Phosphatase Increase - Index Value [3] | Alkaline Phosphatase Increase - Number of Reports [3] | SGOT Increase - Activity Score [4] | SGOT Increase - Index Value [4] | SGOT Increase - Number of Reports [4] | SGPT Increase - Activity Score [5] | SGPT Increase - Index Value [5] | SGPT Increase - Number of Reports [5] | LDH Increase - Activity Score [6] | LDH Increase - Index Value [6] | LDH Increase - Number of Reports [6]
1 | COCC(=O)Nc1c(I)c(C(=O)NCC(O)CO)c(I)c(C(=O)N(C)CC(O)CO)c1I (stereo not drawn) [IOPROMIDE] | 0 | 0 | Inactive | Inactive | 0 | < 4 | Inactive | 0 | < 4 | Inactive | 0 | < 4 | Inactive | 0 | < 4 | Inactive | 0 | < 4
2 | O=C(NCC(O)CO)c1c(I)c(C(=O)NCC(O)CO)c(I)c(N(CCO)C(=O)CO)c1I (stereo not drawn) [IOVERSOL] | 0 | 0 | Inactive | Inactive | 0 | < 4 | Inactive | 0 | < 4 | Inactive | 0 | < 4 | Inactive | 0 | < 4 | Inactive | 400 | < 4
3 | CCc1c2c(nc3ccc(OC(=O)N4CCC(N5CCCCC5)CC4)cc13)-c1cc3c(c(=O)n1C2)COC(=O)[C@]3(O)CC [IRINOTECAN] | 0 | 0 | Inactive | Inactive | 2 | < 4 | Inactive | 4.1 | < 4 | Inactive | 6.1 | < 4 | Inactive | 6.1 | < 4 | Inactive | 4.1 | < 4
4 | FC(F)OC(Cl)C(F)(F)F (stereo not drawn) [ISOFLURANE] | 0 | 0 | Inactive | Inactive | 0 | < 4 | Inactive | 0.6 | < 4 | Inactive | 1 | >= 4 | Inactive | 0.4 | < 4 | Inactive | 0 | < 4
5 | NNC(=O)c1ccncc1 [ISONIAZID] | 5 | 0 | Active | Active | 8 | >= 4 | Active | 12.7 | >= 4 | Active | 38.7 | >= 4 | Active | 34.7 | >= 4 | Active | 10 | >= 4
6 | O=[N+]([O-])O[C@@H]1CO[C@H]2[C@@H]1OC[C@@H]2O [ISOSORBIDE MONONITRATE] | 0 | 0 | Inactive | Inactive | 0 | < 4 | Inactive | 0 | < 4 | Inactive | 0.2 | < 4 | Inactive | 0.5 | < 4 | Inactive | 0.2 | < 4
